Laboratory results published in ChEMBL document CHEMBL4011586 (Eur J Med Chem, 2017).
The source made the active and inactive calls. No cut-off for these calls is given here.

How the values were obtained:
[1] = biological target: T1, Amine oxidase [flavin-containing] B (Homo sapiens, UniProt P27338); test: Inhibition of recombinant human MAO-B expressed in baculovirus infected BTI insect cells assessed as reduction in H2O2 production using p-tyramine as substrate pretreated for 30 mins followed by substrate addition after 30 mins by Amplex red reagent based assay
T1 sequence (P27338 whole entry): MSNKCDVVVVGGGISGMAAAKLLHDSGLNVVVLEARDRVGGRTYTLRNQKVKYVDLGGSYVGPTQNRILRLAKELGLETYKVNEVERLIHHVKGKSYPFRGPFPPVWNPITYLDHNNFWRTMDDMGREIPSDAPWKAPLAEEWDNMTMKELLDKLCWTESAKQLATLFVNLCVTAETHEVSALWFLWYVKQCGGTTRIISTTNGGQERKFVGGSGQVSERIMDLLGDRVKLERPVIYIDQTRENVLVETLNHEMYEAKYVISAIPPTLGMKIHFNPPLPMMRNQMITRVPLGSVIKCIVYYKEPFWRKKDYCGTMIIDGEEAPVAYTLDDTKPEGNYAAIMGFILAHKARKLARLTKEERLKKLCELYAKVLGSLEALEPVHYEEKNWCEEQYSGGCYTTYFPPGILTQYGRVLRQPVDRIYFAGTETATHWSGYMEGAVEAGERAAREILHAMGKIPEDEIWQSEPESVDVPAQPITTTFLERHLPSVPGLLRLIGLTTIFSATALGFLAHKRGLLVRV

[2] = biological target: T2, Amine oxidase [flavin-containing] A (Homo sapiens, UniProt P21397); test: Inhibition of recombinant human MAO-A expressed in baculovirus infected BTI insect cells assessed as reduction in H2O2 production using p-tyramine as substrate pretreated for 30 mins followed by substrate addition after 30 mins by Amplex red reagent based assay
T2 sequence (P21397 whole entry): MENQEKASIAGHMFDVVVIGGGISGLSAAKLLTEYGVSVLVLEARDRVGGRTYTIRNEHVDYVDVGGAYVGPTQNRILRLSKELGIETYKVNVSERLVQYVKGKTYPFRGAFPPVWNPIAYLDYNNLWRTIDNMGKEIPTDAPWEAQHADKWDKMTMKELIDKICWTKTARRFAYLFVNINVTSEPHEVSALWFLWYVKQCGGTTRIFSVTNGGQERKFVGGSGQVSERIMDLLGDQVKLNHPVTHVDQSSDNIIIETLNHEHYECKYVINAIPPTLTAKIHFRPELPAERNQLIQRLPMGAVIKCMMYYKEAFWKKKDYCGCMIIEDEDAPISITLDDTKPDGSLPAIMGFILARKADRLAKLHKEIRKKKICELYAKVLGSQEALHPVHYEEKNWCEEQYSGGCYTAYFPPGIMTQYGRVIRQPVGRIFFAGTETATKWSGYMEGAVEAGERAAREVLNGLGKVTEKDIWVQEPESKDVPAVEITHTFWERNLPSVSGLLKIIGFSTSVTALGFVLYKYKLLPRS

Homo sapiens = organism: Homo sapiens; test: Selectivity index, ratio of IC50 for recombinant human MAO-A to IC50 for recombinant human MAO-B
[3] = Cytotoxicity against human SH-SY5Y cells assessed as cell viability at 50 uM after 24 hrs by WST-1 assay relative to control; format: cell-based; settings: read-out: Activity
[4] = biological target: T1, Amine oxidase [flavin-containing] B; test: (§1) Competitive inhibition of recombinant human MAO-B expressed in baculovirus infected BTI insect cells assessed as reduction in H2O2 production at 11 to 44 nM using varying levels of p-tyramine as substrate pretreated up to 60 mins followed by substrate addition measured after 30 mins by Line-weaver burk plot analysis; settings: 0.5 h
PC-12 [5] = test: Neuroprotective activity against rotenone-induced toxicity in rat PC12 cells at 50 to 100 uM pretreated followed by rotenone challenge measured after 24 hrs; format: functional, cell-based
[6] = Cytotoxicity against rat PC-12 Adh cells assessed as cell viability at 50 uM after 24 hrs by WST-1 assay relative to control; format: cell-based; settings: read-out: Activity
PC-12 [7] = test: Neuroprotective activity against H2O2-induced toxicity in rat PC12 cells at 50 to 100 uM pretreated followed by H2O2 challenge measured after 24 hrs; format: functional, cell-based
[8] = Cytotoxicity against rat PC12 cells assessed as cell viability at 50 uM after 24 hrs by WST-1 assay relative to control; format: cell-based, PC-12; settings: read-out: Activity
[9] = biological target: T1, Amine oxidase [flavin-containing] B; test: Reversible inhibition of recombinant human MAO-B expressed in baculovirus infected BTI insect cells assessed as reduction in H2O2 production using p-tyramine as substrate at 3 times IC50 pretreated up to 60 mins followed by substrate addition after 30 mins by Amplex red reagent based assay; settings: 0.5 h
[10] = biological target: T1, Amine oxidase [flavin-containing] B; test: as §1, with “4” for “11”, “16” for “44”; settings: 0.5 h

| Compound | IC50 [1] [nM] | IC50 [2] [nM] | Ratio IC50 (Homo sapiens) | viability at 24 h, 50 µM [3] [%] | inhibition (INH) [4] | Activity (PC-12 [5]) | viability at 24 h, 50 µM [6] [%] | Activity (PC-12 [7]) | viability at 24 h, 50 µM [8] [%] | inhibition (INH) [9] | inhibition (INH) [10] |
| --- | --- | --- | --- | --- | --- | --- | --- | --- | --- | --- | --- |
| CCN1N=C(c2ccc(/C=C/c3cccc(Cl)c3)cc2)OCC1=O | > 10000 | > 100000 | – | – | – | – | – | – | – | – | – |
| O=C1COC(c2ccc(NS(=O)(=O)c3cccc(Cl)c3)cc2)=NN1 | > 10000 | > 100000 | – | – | – | – | – | – | – | – | – |
| O=C1COC(c2ccc(/N=C/c3ccccc3)cc2)=NN1 | > 10000 | > 100000 | – | – | – | – | – | – | – | – | – |
| O=C1COC(c2ccc(/C=C/c3cccc(Cl)c3)cc2)=NN1 | 173 | > 100000 | > 578 | – | – | – | – | – | – | – | – |
| N#CCCN1N=C(c2ccc(NC(=O)c3cccc(Cl)c3)cc2)OCC1=O | 4230 | > 100000 | > 24 | – | – | – | – | – | – | – | – |
| O=C1COC(c2ccc(/C=C/c3ccccc3)cc2)=NN1 | 165 | > 100000 | > 606 | – | – | – | – | – | – | – | – |
| O=C1COC(c2ccc(/C=C/c3cccc(F)c3)cc2)=NN1 | 22 | > 100000 | > 4540 | > 90 | Active | inactive | > 90 | inactive | > 90 | Active | – |
| O=C1COC(c2ccc(C(=O)Nc3cccc(Cl)c3)cc2)=NN1 | 288 | > 100000 | > 344 | – | – | – | – | – | – | – | – |
| O=C1COC(c2ccc(NC(=O)Nc3cccc(Cl)c3)cc2)=NN1 | 2890 | > 100000 | > 34 | – | – | – | – | – | – | – | – |
| Cc1cccc(/C=N/c2ccc(C3=NNC(=O)CO3)cc2)c1 | 1270 | > 100000 | > 78 | > 90 | – | inactive | > 90 | inactive | > 90 | Active | – |
| O=C1COC(c2ccc(/N=N/c3ccccc3)cc2)=NN1 | 4 | > 100000 | > 25000 | > 90 | – | inactive | > 90 | inactive | > 90 | Active | Active |
| CN1N=C(c2ccc(/N=C/c3cccc(Cl)c3)cc2)OCC1=O | 2030 | > 100000 | > 49 | – | – | – | – | – | – | – | – |
| O=C1COC(c2ccc(/N=C/c3cccc(F)c3)cc2)=NN1 | 1530 | > 100000 | > 65 | – | – | – | – | – | – | – | – |
| O=C1COC(c2ccc(/N=C/c3cccc(Cl)c3)cc2)=NN1 | 257 | > 100000 | > 385 | > 90 | – | inactive | > 90 | inactive | > 90 | Active | – |
| Cc1cccc(/N=N/c2ccc(C3=NNC(=O)CO3)cc2)c1 | 25 | > 100000 | > 4000 | – | – | – | – | – | – | – | – |
| O=C1COC(c2ccc(/C=N/c3cccc(Cl)c3)cc2)=NN1 | 551 | > 100000 | > 182 | – | – | – | – | – | – | – | – |
| O=C1COC(c2ccc(/N=C/c3ccc(Cl)cc3)cc2)=NN1 | 433 | > 100000 | > 231 | – | – | – | – | – | – | – | – |
| O=C1COC(c2ccc(/N=N/c3ccc(Cl)cc3)cc2)=NN1 | 392 | > 100000 | > 255 | – | – | – | – | – | – | – | – |
| O=C1COC(c2ccc(/C=N/Nc3cccc(Cl)c3)cc2)=NN1 | 554 | > 10000 | > 18 | – | – | – | – | – | – | – | – |
| NC(=O)CN1N=C(c2ccc(NC(=O)c3cccc(Cl)c3)cc2)OCC1=O | 3690 | > 100000 | > 27 | – | – | – | – | – | – | – | – |
| O=C1COC(c2ccc(NC(=O)c3cccc(Cl)c3)cc2)=NN1 | 284 | > 100000 | > 357 | – | – | – | – | – | – | – | – |
| O=C1COC(c2ccc(/N=N/c3cccc(F)c3)cc2)=NN1 | 12 | > 100000 | > 8330 | – | – | – | – | – | – | – | – |
| O=C1COC(c2ccc(/C=C/c3ccc(Cl)cc3)cc2)=NN1 | 542 | > 100000 | > 185 | – | – | – | – | – | – | – | – |
| Cc1cccc(/C=C/c2ccc(C3=NNC(=O)CO3)cc2)c1 | 338 | > 100000 | > 296 | – | – | – | – | – | – | – | – |
| O=C1COC(c2ccc(NCc3cccc(Cl)c3)cc2)=NN1 | 2690 | > 100000 | > 37 | – | – | – | – | – | – | – | – |
| O=C1COC(c2ccc(/N=N/c3cccc(Cl)c3)cc2)=NN1 | 287 | > 100000 | > 348 | – | – | – | – | – | – | – | – |
